Laboratory results taken from patent US12281102B2, “Inhibitors of APOL1 and methods of using same” (Vertex Pharmaceuticals Incorporated, priority 2020, dated 2025).
Where two headings read alike, the source gives them in different places.

Target: T1, G1 APOL1 (Homo sapiens, UniProt O14791, I384M/S342G)
T1 construct: expressed in transfected cells
T1 sequence (O14791 28-398 S342G/I384M): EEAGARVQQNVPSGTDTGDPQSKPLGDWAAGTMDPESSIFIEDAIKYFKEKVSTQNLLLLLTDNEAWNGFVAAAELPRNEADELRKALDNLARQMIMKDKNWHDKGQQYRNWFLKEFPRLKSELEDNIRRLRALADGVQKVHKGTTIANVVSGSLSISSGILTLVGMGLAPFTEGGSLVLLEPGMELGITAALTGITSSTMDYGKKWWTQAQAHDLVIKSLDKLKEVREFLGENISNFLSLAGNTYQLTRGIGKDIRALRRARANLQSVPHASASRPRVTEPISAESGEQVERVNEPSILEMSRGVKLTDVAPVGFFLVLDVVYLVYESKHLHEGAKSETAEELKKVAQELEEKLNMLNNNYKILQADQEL
Assay: Acute APOL1 Thallium Assay with inducible stable clones of HEK 293 cells
Format: cell-based
Conditions: HEK 293 T-Rex inducible stable clone expressing G1 APOL1
Procedure, shortened: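 APOL1 pore function was measured as thallium influx, detected by a Tl+-sensitive fluorescent dye loaded as AM ester, on a FLIPR Tetra after Tl+ addition. Cells were HEK T-Rex G1 APOL1 clone DC3.25, 26,000 per well, induced with tetracycline at plating in Opti-MEM assay medium.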

[1] = read-out: Thallium Assay (IC50)

SMILES | IC50 [1] [nM] | IC50 (Thallium Assay (IC50)) [nM]
Cn1cc(S(=O)(=O)N[C@H]2C[C@@H](c3c(-c4ccc(F)cc4)[nH]c4c(F)cc(F)cc43)C2)cn1 [Compound 81] | > 1000 | 
O=C(CC1COC1)N[C@H]1C[C@@H](c2c(-c3ccc(F)cc3)[nH]c3c(F)cc(F)cc32)C1 [Compound 50] | > 1000 | 
CN(CC(O)CO)S(=O)(=O)NC[C@H]1C[C@H](c2c(-c3ccc(F)cc3)[nH]c3c(F)cc(F)cc32)C1 (stereo partly drawn) [Compound 361] | > 1000 | 
CCCS(=O)(=O)N[C@H]1C[C@@H](c2c(-c3ccc(F)cc3)[nH]c3c(F)cc(F)cc32)C1 [Compound 79, N-((1s,3s)-3-(5,7-difluoro-2-(4-fluorophenyl)-1H-indol-3-yl)cyclobutyl)propane-1-sulfonamide] | > 1000 | 
O=C1CC(C(=O)NC2CC(Cc3c(-c4ccc(F)cc4)[nH]c4c(F)cc(F)cc34)C2)C(=O)N1 (stereo not drawn) [Compound 167] | > 1000 | 
O=S(=O)(NC[C@H]1C[C@H](c2c(-c3ccc(F)cc3)[nH]c3c(F)cc(F)cc32)C1)c1n[nH]c2ncccc12 [Compound 419] | > 1000 | 
CC(C)(C)OC(=O)N1CCC[C@@H]1C(=O)NC[C@H]1C[C@H](c2c(-c3ccc(F)cc3)[nH]c3c(F)cc(F)cc32)C1 [Compound 279] |  | > 1000
CCS(=O)(=O)NCC(=O)N[C@H]1C[C@@H](c2c(-c3ccc(F)cc3)[nH]c3c(F)cc(F)cc32)C1 [Compound 43] | > 1000 | 
CN1CCCC(CC(=O)NC[C@H]2C[C@@H](c3c(-c4ccc(F)cc4)[nH]c4c(F)cc(F)cc43)C2)C1 (stereo partly drawn) [Compound 315] | > 1000 | 
CC(C(=O)N[C@H]1C[C@H](c2c(-c3ccc(F)cc3)[nH]c3c(F)cc(F)cc32)C1)n1ccnc1 (mixture of isomers) [Compound 105] | > 1000 | 
O=C(NC[C@H]1C[C@@H](c2c(-c3ccc(F)cc3)[nH]c3c(F)cc(F)cc32)C1)C1(O)CC1 [Compound 234] | > 1000 | 
NS(=O)(=O)CCC(=O)NC[C@H]1C[C@@H](c2c(-c3ccc(F)cc3)[nH]c3c(F)cc(F)cc32)C1 [Compound 232] | > 1000 | 
O=C(Cn1cnnc1)N[C@H]1C[C@@H](c2c(-c3ccc(F)cc3)[nH]c3c(F)cc(F)cc32)C1 [Compound 33] | > 1000 | 
CS(=O)(=O)CCC(=O)NC[C@H]1C[C@@H](c2c(-c3ccc(F)cc3)[nH]c3c(F)cc(F)cc32)C1 [Compound 262] | > 1000 | 
O=S(=O)(NCCN1CCC(O)C1)NC[C@H]1C[C@H](c2c(-c3ccc(F)cc3)[nH]c3c(F)cc(F)cc32)C1 (stereo partly drawn) [Compound 333] | > 1000 | 
O=S(=O)(NCCc1c[nH]cn1)NC[C@H]1C[C@H](c2c(-c3ccc(F)cc3)[nH]c3c(F)cc(F)cc32)C1 [Compound 359] | > 1000 | 
O=C(N[C@H]1C[C@@H](c2c(-c3ccc(F)cc3)[nH]c3c(F)cc(F)cc32)C1)OCc1ccccc1 [Compound 27, benzyl((1s,3s)-3-(5,7-difluoro-2-(4-fluorophenyl)-1H-indol-3-yl)cyclobutyl)carbamate] | > 1000 | 
Fc1ccc(-c2[nH]c3c(F)cc(F)cc3c2C2CC(CNC3CCOC3)C2)cc1 (stereo not drawn) [Compound 396] | > 1000 | 
C[C@@H](CO)NCC1CC(c2c(-c3ccc(F)cc3)[nH]c3c(F)cc(F)cc23)C1 (stereo partly drawn) [Compound 389] | > 1000 | 
CN1CCC(CC(=O)N[C@H]2C[C@H](c3c(-c4ccc(F)cc4)[nH]c4c(F)cc(F)cc43)C2)CC1 [Compound 117] | > 1000 | 
O=C1CCC(CNS(=O)(=O)NC[C@H]2C[C@H](c3c(-c4ccc(F)cc4)[nH]c4c(F)cc(F)cc43)C2)N1 (stereo partly drawn) [Compound 340] | > 1000 | 
O=C(CO)N[C@H]1C[C@H](c2c(-c3ccc(F)cc3)[nH]c3c(F)cc(F)cc32)C1 [Compound 136] | < 250 | 
CS(=O)(=O)NCC(=O)NC[C@H]1C[C@@H](c2c(-c3ccc(F)cc3)[nH]c3c(F)cc(F)cc32)C1 [Compound 271] | > 1000 | 
O=S(=O)(NC[C@H]1C[C@H](c2c(-c3ccc(F)cc3)[nH]c3c(F)cc(F)cc32)C1)N[C@@H]1CCC[C@@H]1O [Compound 357] | > 1000 | 
CC(NS(C)(=O)=O)C(=O)NC[C@H]1C[C@@H](c2c(-c3ccc(F)cc3)[nH]c3c(F)cc(F)cc32)C1 (mixture of isomers) [Compound 242] | > 1000 | 
O=C(NC[C@H]1C[C@H](c2c(-c3ccc(F)cc3)[nH]c3c(F)cc(F)cc32)C1)[C@H]1COCCN1 [Compound 257] | > 1000 | 
Cn1ccc(NCC2CC(c3c(-c4ccc(F)cc4)[nH]c4c(F)cc(F)cc34)C2)n1 (stereo not drawn) [Compound 399] | > 1000 | 
O=C(Cc1ccncn1)NC[C@H]1C[C@H](c2c(-c3ccc(F)cc3)[nH]c3c(F)cc(F)cc32)C1 [Compound 251] | > 1000 | 
O=C(CN1CCOCC1)NC[C@H]1C[C@@H](c2c(-c3ccc(F)cc3)[nH]c3c(F)cc(F)cc32)C1 [Compound 272] | > 1000 | 
O=C(NC1CC(Cc2c(-c3ccc(F)cc3)[nH]c3c(F)cc(F)cc23)C1)c1ccn[nH]1 (stereo not drawn) [Compound 166] | > 1000 | 

More lines, main results first:

IC50 [1] [nM] | SMILES | IC50 (Thallium Assay (IC50)) [nM]
> 1000 | O=C(NC[C@H]1C[C@@H](c2c(-c3ccc(F)cc3)[nH]c3c(F)cc(F)cc32)C1)c1cn[nH]c1 [Compound 317] | 
> 1000 | O=C(NC[C@H]1C[C@H](c2c(-c3ccc(F)cc3)[nH]c3c(F)cc(F)cc32)C1)[C@@H]1COCCN1 [Compound 276] | 
< 250 | O=C1NCCN1C[C@H]1C[C@H](c2c(-c3ccc(F)cc3)[nH]c3c(F)cc(F)cc32)C1 [Compound 373, 1-(((1r,3r)-3-(5,7-difluoro-2-(4-fluorophenyl)-1H-indol-3-yl)cyclobutyl)methyl)imidazolidin-2-one] | 
250 to 1000 | NC12CC(NCC3CC(c4c(-c5ccc(F)cc5)[nH]c5c(F)cc(F)cc45)C3)(C1)C2 (stereo not drawn) [Compound 384] | 
250 to 1000 | CCS(=O)(=O)NC[C@H]1C[C@H](c2c(-c3ccc(F)cc3)[nH]c3c(F)cc(F)cc32)C1 [Compound 413] | 
< 250 | N[C@H]1C[C@H](Cc2c(-c3ccc(F)cc3)[nH]c3c(F)cc(F)cc23)C1 [Compound 157, trans-3-[[5,7-difluoro-2-(4-fluorophenyl)-1H-indol-3-yl]methyl]cyclobutanamine] | 
> 1000 | O=C(CN1CCCC1)N[C@H]1C[C@@H](c2c(-c3ccc(F)cc3)[nH]c3c(F)cc(F)cc32)C1 [Compound 46] | 
250 to 1000 | Fc1ccc(-c2[nH]c3c(F)cc(F)cc3c2C2CC(CNC3COC3)C2)cc1 (stereo not drawn) [Compound 380] | 
> 1000 | Fc1ccc(-c2[nH]c3c(F)cc(F)cc3c2C2CC(NC3COC3)C2)cc1 (stereo not drawn) [Compound 22] | 
< 250 | C[C@H](N)C(=O)NC[C@H]1C[C@H](c2c(-c3ccc(F)cc3)[nH]c3c(F)cc(F)cc32)C1 [Compound 189, (S)-2-amino-N-(((1r,3S)-3-(5,7-difluoro-2-(4-fluorophenyl)-1H-indol-3-yl)cyclobutyl)methyl)propanamide] | 
250 to 1000 | O=S(=O)(NC[C@H]1C[C@H](c2c(-c3ccc(F)cc3)[nH]c3c(F)cc(F)cc32)C1)NC(CO)CF (stereo partly drawn) [Compound 346] | 
> 1000 | Fc1ccc(-c2[nH]c3c(F)cc(F)cc3c2C2CC(CNCC3COC3)C2)cc1 (stereo not drawn) [Compound 405] | 
> 1000 | CC(C)(CO)NCC1CC(c2c(-c3ccc(F)cc3)[nH]c3c(F)cc(F)cc23)C1 (stereo not drawn) [Compound 407] | 
> 1000 | O=C1NCCC1C(=O)NC[C@H]1C[C@@H](c2c(-c3ccc(F)cc3)[nH]c3c(F)cc(F)cc32)C1 (stereo partly drawn) [Compound 303] | 
< 250 | O=C(CO)NC[C@H]1C[C@H](c2c(-c3ccc(F)cc3)[nH]c3c(F)cc(F)cc32)C1 [Compound 203] | 
250 to 1000 | C[C@H](O)C(=O)NC[C@H]1C[C@@H](c2c(-c3ccc(F)cc3)[nH]c3c(F)cc(F)cc32)C1 [Compound 213] | 
250 to 1000 | Cn1cnc(CC(=O)N[C@H]2C[C@H](c3c(-c4ccc(F)cc4)[nH]c4c(F)cc(F)cc43)C2)c1 [Compound 143] | 
250 to 1000 | C[C@H](O)C(=O)NC1CC(Cc2c(-c3ccc(F)cc3)[nH]c3c(F)cc(F)cc23)C1 (stereo partly drawn) [Compound 161] | 
< 250 | O=C(NC[C@H]1C[C@H](c2c(-c3ccc(F)cc3)[nH]c3c(F)cc(F)cc32)C1)C(F)F [Compound 200] | 
250 to 1000 | O=C(CC(=O)N1CCOCC1)N[C@H]1C[C@@H](c2c(-c3ccc(F)cc3)[nH]c3c(F)cc(F)cc32)C1 [Compound 56] | 
250 to 1000 | O=C(N[C@H]1C[C@H](c2c(-c3ccc(F)cc3)[nH]c3c(F)cc(F)cc32)C1)C1COC1 [Compound 131] | 
250 to 1000 | O=C(CCO)NC1CC(c2c(-c3ccc(F)cc3)[nH]c3c(F)cc(C(F)(F)F)cc23)C1 (mixture of isomers) [Compound 2, N-[3-[7-fluoro-2-(4-fluorophenyl)-5-(trifluoromethyl)-1H-indol-3-yl]cyclobutyl]-3-hydroxy-propanamide] | 
250 to 1000 | O=C1CCC(NCC2CC(c3c(-c4ccc(F)cc4)[nH]c4c(F)cc(F)cc34)C2)C(=O)N1 (stereo not drawn) [Compound 382] | 
250 to 1000 | O=C(N[C@H]1C[C@H](c2c(-c3ccc(F)cc3)[nH]c3c(F)cc(F)cc32)C1)C(O)CO (stereo partly drawn) [Compound 96] | 
250 to 1000 | O=C(N[C@H]1C[C@@H](c2c(-c3ccc(F)cc3)[nH]c3c(F)cc(F)cc32)C1)C1(O)CC1 [Compound 76] | 
250 to 1000 | COCCC(=O)NC[C@H]1C[C@@H](c2c(-c3ccc(F)cc3)[nH]c3c(F)cc(F)cc32)C1 [Compound 209] | 
< 250 | C[C@H](O)C(=O)N1CC(Cc2c(-c3ccc(F)cc3)[nH]c3c(F)cc(F)cc23)C1 [Compound 438] | 
